Results taken from patent publication US5716953A, “1,5-benzodiazepine derivatives” (Glaxo Wellcome S.p.A., priority 1993, dated 1998).
Counter-ions that a name gives are not always drawn. Like-named read-outs stand apart in the source and are kept apart here.

Legend:
[1] = biological target: CCK-A receptor; assay: CCK-A receptor binding (Pancreas Assay)
Description: Exp & Ther. 261, 1056-1063, 1992.
(§1) The binding affinity of the compounds of the invention for the CCK-A receptor (Pancreas Assay) and CCK-B receptor (guinea pig cortex assay) was determined using the procedure of G Dal Forno et al J. Pharmacol. Exp & Ther. 261-1056-1063.

[2] = test system: mice; assay: oral administration to mice, observation of untoward effects at anxiolytic doses; format: in vivo; details: orally; for untoward effects: at doses at which the compounds exhibit anxiolytic activity
Excerpt: (§2) The compounds of the invention are essentially non-toxic and therapeutically useful doses.

[3] = biological target: T1, CCK-B receptor (Cavia porcellus, UniProt H0VZC5); assay: CCK-B receptor binding (guinea pig cortex assay)
T1 construct: CCK-B receptor (guinea pig cortex assay); from tissue; host or cells: guinea pig cortex
T1 sequence (H0VZC5 1-426): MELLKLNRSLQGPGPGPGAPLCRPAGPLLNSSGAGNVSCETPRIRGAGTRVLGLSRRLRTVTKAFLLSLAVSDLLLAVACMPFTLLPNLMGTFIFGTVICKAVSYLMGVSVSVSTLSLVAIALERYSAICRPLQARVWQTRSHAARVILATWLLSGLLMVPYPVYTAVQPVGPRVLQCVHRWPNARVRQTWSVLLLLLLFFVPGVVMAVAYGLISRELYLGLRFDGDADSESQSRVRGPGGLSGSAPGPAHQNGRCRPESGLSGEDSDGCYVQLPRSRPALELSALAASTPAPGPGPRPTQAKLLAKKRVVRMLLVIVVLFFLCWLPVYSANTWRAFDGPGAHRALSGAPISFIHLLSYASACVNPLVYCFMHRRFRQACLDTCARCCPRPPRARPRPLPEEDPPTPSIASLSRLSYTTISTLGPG
Description: The greater affinity of the compounds of the invention for the CCK-B receptor over the CCK-A receptor has also been established using the CCK receptor binding assays described by G Dal Forno et al., J. Pharmcol. Exp & Ther. 261, 1056-1063, 1992.
as §1, with “261-1056-1063. The pKi values determined with representative compounds of invention were as follows: […]” for “261-1056-1063.”

[4] = test system: rats; assay: oral administration to rats, observation of untoward effects at anxiolytic doses; format: in vivo; details: orally
Excerpt: as §2

[5] = CCK-B receptor, guinea pig cortex assay, read-out: pKi CCK-B (converted)

| Structure (SMILES) | pKi CCK-A [1] | Ki [3, 5] | also measured |
| --- | --- | --- | --- |
| O=C(Nc1ccccc1)NC1C(=O)N(CCN2CCOCC2)c2ccccc2N(CC23CC4CC(CC(C4)C2)C3)C1=O (single isomer, unassigned) [Example 11 (isomer 1), N-[1-(1-Adamantylmethyl)-2,4-dioxo-5-[2-(4-morpholino)ethyl]-2,3,4,5-tetrahydro-1H-benzodiazepin-3-yl]-N'-phenylurea Isomer 1] | 5.69 | 0.214 nM | anxiolytic activity [2]: exhibit anxiolytic activity; untoward effects [2]: no untoward effects were observed |
| O=C(Nc1ccccc1)NC1C(=O)N(CCN2CCOCC2)c2ccccc2N(CC23CC4CC(CC(C4)C2)C3)C1=O (single isomer, unassigned; (-)) [Example 18, (-)[1-(1-Adamantylmethyl)-2,4-dioxo-5-[2-(4-morpholino)ethyl]-2,3,4,5-tetrahydro-1H-1,5-benzodiazepin-3-yl]-N'-phenylurea, hydrochloride salt] | – | – | anxiolytic activity [2]: exhibit anxiolytic activity; untoward effects [2]: no untoward effects were observed; anxiolytic activity [4]: exhibit anxiolytic activity; untoward effects ([4]; at doses at which the compounds exhibit anxiolytic activity): no untoward effects were observed |
| CN(C)CCN1C(=O)C(NC(=O)Nc2ccccc2)C(=O)N(CC23CC4CC(CC(C4)C2)C3)c2ccccc21 (stereo not shown) [Example 7, N-[1-(1-Adamantylmethyl)-5-[2-(dimethylamino)ethyl]-2,4-dioxo-2,3,4,5-tetrahydro-1H-1,5-benzodiazepin-3-yl]-N'-phenylurea] | 5.49 | 1.29 nM | – |
| O=C(Nc1ccccc1)NC1C(=O)N(CCN2CCCC2)c2ccccc2N(CC23CC4CC(CC(C4)C2)C3)C1=O (stereo not shown) [Example 10, N-[1-(1-Adamantylmethyl)-2,4-dioxo-5-[2-(1-pyrrolidino)ethyl]-2,3,4,5-tetrahydro-1H-benzodiazepin-3-yl]-N'-phenylurea] | 5.02 | 1.05 nM | – |
| N[C@@H](CO)CN1C(=O)C(NC(=O)Nc2ccccc2)C(=O)N(CC23CC4CC(CC(C4)C2)C3)c2ccccc21 (stereo partly drawn) [Example 12, N-[1-(1-Adamantylmethyl)-2,4-dioxo-5-[(3-hydroxy-2(R)amino)propyl]-2,3,4,5-tetrahydro-1H-1,5-benzodiazepin-3-yl]-N'-phenylurea hydrochloride] | 5.04 | – | pKi CCK-B ([3]; CCK-B receptor, guinea pig cortex assay): 8.18 |
| CCN(CC)CCN1C(=O)C(NC(=O)Nc2ccccc2)C(=O)N(CC2CCCCC2)c2ccccc21 (stereo not shown) [Example 13, N-[1-(Cyclohexylmethyl)-2,4-dioxo-5-[(2-diethylamino)ethyl]-2,3,4,5-tetrahydro-1H-1,5-benzodiazepin-3-yl]-N'-phenylurea] | 5.82 | 1.02 nM | – |
| O=C(Nc1ccccc1)NC1C(=O)N(CCN2CCOCC2)c2cc(F)ccc2N(CC23CC4CC(CC(C4)C2)C3)C1=O (stereo not shown) [Example 14, N-[1-(1-Adamantylmethyl)-2,4-dioxo-7-fluoro-5-[2-(4-morpholino)ethyl]-2,3,4,5-tetrahydro-1H-1,5-benzodiazepin-3-yl]-N'-phenylurea] | 5.88 | 4.37 nM | – |
| CC(C)CCN1C(=O)C(NC(=O)Nc2ccc(Cl)cc2)C(=O)N(CCN2CCOCC2)c2ccccc21 (stereo not shown) [Example 15, N-[1-(3-methyl-1-butyl)-2,4-dioxo-5-[2-(4-morpholino)ethyl]-2,3,4,5-tetrahydro-1H-benzodiazepin-3-yl]-N'-(4-chlorophenyl)urea] | 5.99 | 1.95 nM | – |
| Cc1cccc(NC(=O)NC2C(=O)N(CCN3CCCCCC3)c3ccccc3N(c3ccccc3)C2=O)c1 (stereo not shown) [Example 17, N-[2,4-Dioxo-1-[2-(hexamethyleneimino)ethyl]-5-phenyl-2,3,4,5-tetrahydro-1H-benzodiazepin-3-yl]-N'-(3-tolyl)urea] | 5.08 | – | Ki [3]: 2 nM |

The next lines start with results.

| pKi CCK-A [1] | Ki [3, 5] | Structure (SMILES) | also measured |
| --- | --- | --- | --- |
| 6.17 | 2.88 nM | CC(C)CCN1C(=O)C(NC(=O)Nc2ccccc2)C(=O)N(CCN2CCOCC2)c2ccccc21 (stereo not shown) [Example 1, N-[2,4-Dioxo-1-(3-methyl-1-butyl)-5-[2-(4-morpholinyl)ethyl]-2,3,4,5-tetrahydro-1H-1,5-benzodiazepin-3-yl]-N'-phenylurea] | – |
| 5.69 | 6.76 nM | CC(C)CCN1C(=O)C(NC(=O)Nc2ccccc2)C(=O)N(CCN2CCCCC2)c2ccccc21 (stereo not shown) [Example 2, N-[2,4-Dioxo-1-(3-methyl-1-butyl)-5-[2-(1-piperidino)ethyl]-2,3,4,5-tetrahydro-1H-1,5-benzodiazepin-3-yl]-N'-phenylurea] | – |
| 5.48 | 4.68 nM | CC(C)CCN1C(=O)C(NC(=O)Nc2ccccc2)C(=O)N(CCN(C)C)c2ccccc21 (stereo not shown) [Example 3, N-[5-[2-(Dimethylamino)ethyl]-2,4-dioxo-1-(3-methyl-1-butyl) -2,3,4,5-tetrahydro-1H-1,5-benzodiazepin-3-yl]-N'-phenylurea] | – |
| 5.29 | 7.94 nM | COc1ccc(NC(=O)NC2C(=O)N(CCC(C)C)c3ccccc3N(CCN3CCOCC3)C2=O)cc1 (stereo not shown) [Example 4, N-[2,4-Dioxo-1-(3-methyl-1-butyl)-5-[2-(4-morpholino)ethyl]-2,3,4,5-tetrahydro-1H-1,5-benzodiazepin-3-yl]-N'-(4-methoxyphenyl)urea] | – |
| 5.08 | 7.41 nM | CC(C)CCN1C(=O)C(NC(=O)Nc2ccc(O)cc2)C(=O)N(CCN2CCOCC2)c2ccccc21 (stereo not shown) [Example 5, N-[2,4-Dioxo-1-(3-methyl-1-butyl)-5-[2-(4-morpholinyl)ethyl]-2,3,4,5-tetrahydro-1H-1,5-benzodiazepin-3-yl]-N'-(4-hydroxyphenyl)urea] | – |
| 5.39 | 1.58 nM | CCN(CC)CCN1C(=O)C(NC(=O)Nc2ccccc2)C(=O)N(CCC(C)C)c2ccccc21 (stereo not shown) [Example 6] | – |
| 4.69 | 3.63 nM | CN(C)CCCN1C(=O)C(NC(=O)Nc2ccccc2)C(=O)N(CC23CC4CC(CC(C4)C2)C3)c2ccccc21 (stereo not shown) [Example 8, N-[1-(1-Adamantylmethyl)-5-[3-(dimethylamino)propyl]-2,4-dioxo-2,3,4,5-tetrahydro-1H-1,5-benzodiazepin-3-yl]-N'-phenylurea] | – |
| 5.69 | 0.575 nM | O=C(Nc1ccccc1)NC1C(=O)N(CCN2CCOCC2)c2ccccc2N(CC23CC4CC(CC(C4)C2)C3)C1=O (stereo not shown) [Example 9, N-[1-(1-Adamantylmethyl)-2,4-dioxo-5-[2-(4-morpholino)ethyl]-2,3,4,5-tetrahydro-1H-benzodiazepin-3-yl]-N'-phenylurea] | – |
| 5.83 | 3.63 nM | CC(C)CCN1C(=O)C(NC(=O)Nc2ccc(C(F)(F)F)cc2)C(=O)N(CCN2CCOCC2)c2ccccc21 (stereo not shown) [Example 16, N-[2,4-Dioxo-1-(3-methyl-1-butyl)-5-[2-(4-morpholino)ethyl]-2,3,4,5-tetrahydro-1H-1,5-benzodiazepin-3-yl]-N'-(4-trifluoromethyl)phenylurea] | – |
